Here are results for 53 molecules from ChEMBL document CHEMBL1129412, “Computation of brain-blood partitioning of organic solutes via free energy calculations” (J Med Chem, 1996).

A short description of data set [1]: logBB, log(C brain / C blood).
Data set [2] can be described thus: logBB, log(C brain/C blood).
Data set [3] is described as follows: The ratio of brain-blood partitioning, (C brain / C blood). The format is ADME, tissue-based.

Take `FC(F)OC(F)(F)C(F)Cl` (stereo not drawn): in data set [1] (blood), the Kp was 1.74. Molecule `O=C(NCCCOc1cccc(CN2CCCCC2)c1)c1ccccc1` gave a Kp in data set [2] (blood) of 0.575.

On to `Cc1csc(N=C(N)N)n1`, for which the Kp in data set [2] (blood) is 0.912. On to `CN(C)Cc1ccc(CSCCNc2ncc(Cc3ccc4ccccc4c3)c(O)n2)o1`, for which, in data set [2] (brain / blood), the Kp was 0.0501. As to `c1ccc(NCCCOc2cccc(CN3CCCCC3)c2)nc1`, the Kp in data set [2] (blood) is 4.9. For `O=[N+]([O-])c1c(Cc2ccccc2)c[nH]c1NCCSCc1ccccn1`, the Kp in data set [2] (brain / blood) is 0.759. Consider `FC(F)(F)CCl`, for which the Kp in data set [1] (brain / blood) was 1.2. Molecule `CCC(C)(C)C` showed a Kp in data set [1] (brain / blood) of 11. With `CN(C)Cc1ccnc(-c2cccc(Nc3[nH]ccc3[N+](=O)[O-])c2)c1`, in data set [2] (blood), the Kp was 0.525. Take `FC(Br)C(F)(F)F` (stereo not drawn): the Kp in data set [1] (blood) is 1.86. Molecule `c1cc(CN2CCCCC2)cc(OCCCNc2nccs2)c1` gave a Kp in data set [2] (blood) of 2.75. On to `CN1Cc2c(-c3noc(C(C)(O)CO)n3)ncn2-c2cccc(Cl)c2C1=O` (stereo not drawn), for which the Kp in data set [3] is 0.015; in data set [1] (blood) it was 0.0151.

On to `CN1Cc2c(-c3noc(C(C)(C)O)n3)ncn2-c2cccc(Cl)c2C1=O`, for which the Kp is 0.046 in data set [3] and 0.0457 in data set [1] (brain / blood). As for `CC(=O)NCCCOc1cccc(CN2CCCCC2)c1`, the Kp in data set [2] (blood) was 0.347. In data set [2] (blood), `CC(=O)Nc1cccc(-c2csc(N=C(N)N)n2)c1` gave a Kp of 0.0269.

Consider `NC(N)=Nc1nc(-c2ccccc2)cs1`, for which, in data set [2] (brain / blood), the Kp was 0.661.

Turning to `O=[N+]([O-])c1cc[nH]c1NCCSCc1ncccc1Br`, the Kp in data set [2] (brain / blood) is 0.214. On to `CC(C)c1nc(-c2ncn3c2CN(C)C(=O)c2c(Cl)cccc2-3)no1`, for which the Kp in data set [3] is 0.5; in data set [1] (brain / blood) it was 0.501.

Turning to `CCCC(C)C`, the partition ratio (Kp) in data set [1] (brain / blood) is 9.33. In turn, `CCCC(C)CC` (stereo not drawn) showed a Kp in data set [1] (blood) of 7.94. On to `CN(C)Cc1ccc(CSCCNc2[nH]ccc2[N+](=O)[O-])o1`, for which the partition ratio (Kp) in data set [2] (brain / blood) was 0.0759. Consider `CN(C)Cc1ccc(CSCCNc2[nH]cc(Cc3ccccc3)c2[N+](=O)[O-])o1`, for which the partition ratio (Kp) in data set [2] (blood) was 0.186. In the case of `CC/N=C(\NC#N)NCCSCc1ncccc1Br`, the Kp in data set [2] (blood) was 0.00708. In the case of `CCC(C)CC`, in data set [1] (blood), the Kp was 10.2.

The molecule `CN(C)Cc1ccc(-c2cccc(Nc3[nH]ccc3[N+](=O)[O-])c2)o1` had a Kp in data set [1] (brain / blood) of 0.537. For `N=C(N)Nc1nc(-c2cccc(N)c2)cs1`, in data set [2] (brain / blood), the Kp is 0.0708. Consider `CN(C)c1cc(-c2n[nH]c(N)n2)ccn1`, for which, in data set [2] (brain / blood), the concentration ratio (Kp) was 0.0676. Still for that read-out and setting: for `C/N=C(\NC#N)Nc1cccc(-c2csc(N=C(N)N)n2)c1` the value was 0.0288. As for `CCO` [ALCOHOL], in data set [1] (blood), the Kp was 0.692. For the molecule `CN(C)CCC=C1c2ccccc2CCc2ccccc21` [AMITRIPTYLINE], the Kp in data set [3] was determined as 9.6. With `c1ccccc1` [BENZENE], the Kp in data set [1] (blood) is 2.34. Still for that read-out and setting: to `CCC(C)=O` [BUTANONE] belongs 0.832. Regarding `NC(=O)N1c2ccccc2C2OC2c2ccccc21` (stereo not drawn) [CARBAMAZEPINE EPOXIDE], the Kp is 0.46 in data set [3] and 0.457 in data set [1] (brain / blood). With `NC(=O)N1c2ccccc2C=Cc2ccccc21` [CARBAMAZEPINE], the Kp in data set [3] and in data set [1] (blood) was 1 in each case.

With `CN/C(=N/CCSCc1nc[nH]c1C)NC#N` [CIMETIDINE], the Kp in data set [2] (blood) is 0.038. The molecule `C=COCC(F)(F)F` [FLUROXENE] showed a Kp in data set [1] (blood) of 1.35. On the same count and under the same terms, for `FC(F)(F)C(Cl)Br` (stereo not drawn) [HALOTHANE] the value was 2.24; for `CCCCCCC` [HEPTANE], 6.46; for `CCCCCC` [HEXANE], 6.31. In turn, `COc1cccnc1CCCCNc1ncc(Cc2ccc(C)nc2)c(=O)[nH]1` [ICOTIDINE] had a Kp in data set [2] (blood) of 0.01.

In data set [2] (blood), `CN(C)CCCN1c2ccccc2CCc2ccccc21` [IMIPRAMINE] showed a Kp of 6.76. As for `CC(C)CO` [ISOBUTANOL], in data set [1] (brain / blood), the Kp is 0.676.

Take `FC(F)OC(Cl)C(F)(F)F` (stereo not drawn) [ISOFLURANE]: the partition ratio (Kp) in data set [1] (blood) was 2.63.

As for `CC(C)O` [ISOPROPYL ALCOHOL], the Kp in data set [1] (blood) was 0.708. In turn, `Cc1ccc(Cc2c[nH]c(NCCSCc3ccc(CN(C)C)o3)nc2=O)cn1` [LUPITIDINE] had a Kp in data set [2] (brain / blood) of 0.0871. On to `C` [METHANE], for which the Kp in data set [1] (brain / blood) was 1.1. Consider `CC1CCCC1` [METHYLCYCLOPENTANE], for which, in data set [1] (blood), the Kp was 8.51.

Turning to `N#N` [NITROGEN], the partition ratio (Kp) in data set [1] (brain / blood) is 1.07. On the same count and under the same terms, for `CCCCC` [PENTANE] the value was 5.75. As for `COc1ccc(CN(CCN(C)C)c2ccccn2)cc1` [PYRILAMINE], the Kp in data set [2] (blood) was 3.09. In data set [1] (blood), `Cc1ccccc1` [TOLUENE] had a Kp of 2.34. On to `CC(Cl)(Cl)Cl` [TRICHLOROETHANE], for which the Kp in data set [1] (blood) was 2.51. On the same count and under the same terms, for `ClC=C(Cl)Cl` [TRICHLOROETHYLENE] the value was 2.19.

The Kp is the ratio of the level in a tissue or fluid to that in plasma or blood.
